Laboratory results: patent US9868692B2, “Compounds and compositions for intracellular delivery of therapeutic agents” (MODERNATX, Inc., priority 2015, dated 2018)
One block for each molecule: values may come before it.

How the values were obtained:
[1] = system: hEPO mRNA expression; experiment: hEPO expression after intravenous administration to mice; format: in vivo; details: i.v., 0.5 mpk, 3, 6 and 24 hours
Experimental: Sample formulations of nanoparticle compositions including different lipids are generally first evaluated according to Luc expression in vivo. The activity of several such compositions was further evaluated using an mRNA encoding hEPO. Nanoparticle compositions including Compounds 6, 18, 25, 30, 108-112, 60, and 122, or MC3 were prepared according to Example 2.
(§1) The expression of hEPO and cytokine induction in mice intravenously administered a nanoparticle composition at a dose of 0.5 mpk were measured at 3, 6, and 24 hours. […] The expression of hEPO in mice intramuscularly administered a nanoparticle composition from Table 1B at a dose of 0.01 mpk were measured at 3, 6, and 24 hours. […] (see also FIG. 9.)

[2] = Particle size, polydispersity index (and zeta potential) of nanoparticle compositions, Zetasizer Nano ZS; format: physicochemical; details: Table 1A formulations
How it was run: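 Particle size and polydispersity index were measured by dynamic light scattering on a Zetasizer Nano ZS in 1×PBS. Zeta potential was measured in 15 mM PBS.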

[3] = Encapsulation efficiency of RNA, QUANT-IT RIBOGREEN RNA assay; format: physicochemical; details: Table 1A formulations
How it was run: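 Nanoparticle samples at about 5 μg/mL RNA in TE buffer pH 7.5 were mixed with TE or with a 2% Triton X-100 solution, incubated 15 min at 37 °C, then stained with RiboGreen diluted 1:100. Fluorescence was read at about 480/520 nm and blank-subtracted. Free RNA % was taken as intact over Triton-disrupted fluorescence.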

[4] = Residual lipid level in liver of rats (UPLC-MS quantification); format: in vivo; details: rat; for concentration at 0.25 h / concentration at 0.5 h / concentration at 1 h / concentration at 2 h / concentration at 4 h / concentration at 8 h / concentration at 24 h / concentration at 48 h: liver; for % Lipid Remaining in liver, 48 h 2 mpk: assuming 300 g rat and 15 g liver
Experimental: (§2) To pre-weighed tissues, Milli-Q water was added (900 μL water per 100 mg tissue). Tissues were homogenized using an Omni probe homogenizer until uniform. 50 μL of samples and matrix calibration standards were aliquoted into a 96-well plate. 50 μL of blank matrix for matrix blanks and control blanks were aliquoted. 400 μL IS spiking solution were manually added to all samples except matrix blanks. 400 μL of 50:50 ACN:IPA were manually added to matrix blanks. The plate was covered and the samples vortexed and centrifuged for 5 minutes at >3000 rpm. 200 μL of the samples were transferred into a clean 96-well plate for analysis. […] Detection was based on electrospray ionization (ESI) in positive mode using a Sciex API5500 Mass Spectrometer.
(§3) The expression of hEPO in rats intravenously administered a nanoparticle composition at a dose of 0.2 mpk or 2.0 mpk was measured at 6 hours. […] Liver and spleen levels represent the average values calculated for 3 rats in each group.
(§4) The expression of hEPO and lipid levels in the liver and spleen in rats intravenously administered a nanoparticle composition at a dose of 0.2 mpk was measured at various timepoints. […] Lipids were formulated according to the standard MC3 formulation described above.

[5] = Residual lipid level in spleen of rats (UPLC-MS quantification); format: in vivo; details: rat
Experimental: as §2, §3, §4

[6] = system: luciferase (Luc) mRNA expression; experiment: Luc expression (total flux) after intramuscular administration; format: in vivo, mice; details: i.m.
Experimental: The numbers 1-7 in this figure correspond to MC3, Compounds 168-170, and 173-175 respectively.
Sample formulations including both modified luciferase (Luc) mRNA and H10 mRNA were prepared and administered intramuscularly and the resulting expression and immunogenicity were evaluated simultaneously. Formulations including compounds according to Formula (I), (IA), (II), (IIa), (IIb), (IIc), (IId) or (IIe) were prepared and administered at doses of 0.001 and 0.01 mpk (e.g., doses of 0.0005 mpk of a formulation including Luc mRNA and a formulation including H10 mRNA or doses of 0.005 mpk of a formulation including Luc mRNA and a formulation including H10 mRNA).
Sample formulations including modified luciferase (Luc) mRNA prepared and administered intramuscularly and the resulting expression and immunogenicity were evaluated simultaneously. Formulations including compounds according to Formula (I), (IA), (II), (IIa), (IIb), (IIc), (IId) or (IIe) were prepared and administered at dose of […] 0.01 mpk.
The fluxes measured upon intravenous and intramuscular administration are compared in Table 6. Fluxes are presented as fold increase over that measured for MC3 formulations.

[7] = system: IL-6; experiment: Cytokine induction (IL-6) after intravenous administration to mice; format: in vivo; details: i.v., 0.5 mpk, 6 hours (Table 7)
Description: The introduction of foreign material into a mammalian body induces an innate immune response that promotes cytokine production. Such immune responses to, for example, nanoparticle compositions including therapeutic and/or prophylactics, are undesirable. The induction of certain cytokines is thus measured to evaluate the […] of nanoparticle compositions. The concentrations of various cytokines in mice upon intravenous administration of nanoparticle compositions presented in Table 1A at a dosage of 0.5 mpk was measured at 6 hours. The standard MC3 formulation and a PBS control were also tested. As is evident in Table 7, IL-6 induction was highest for compositions including Compounds 1, 3, 9, 19, and 26, while IP-10 induction was highest for compositions including Compounds 3, 4, 7, 20, and 26. IL-6 induction was lowest for compositions including Compounds 4, 11, 12, and 28. IP-10 induction was lowest for compositions including Compounds 10, 11, 12, 13, 15, 17, and 18.
as §1

[8] = Clinical chemistry and hematology after intravenous administration to rat; format: in vivo; details: i.v., 2 mpk, 48 h post dose
Experimental: Sample formulations of nanoparticle compositions including different lipids were administered intravenously to rat at a dose of 2 mpk. The expression of various clinical markers was evaluated at 48 h post dose and compared to that induced by administration of MC3 formulations or phosphate buffered saline (PBS).
Table 19 summarizes the hEPO expression, IP-10 induction, liver and spleen levels, and alanine aminotransferase (ALT) and aspartate aminotransferase (AST) measured upon intravenous administration of formulations including Compounds 48, 49, and 50 to rat at 0.2 and 2 mpk and hEPO mRNA. hEPO concentrations were measured 6 hours after administration, while cytokine induction and liver and spleen levels were measured 48 hours after administration. hEPO and IP-10 concentrations are presented in pg/ml, while liver levels are provided in ng/g. ALT and AST levels are presented in international units.

[9] = Lipid clearance: % dose remaining in liver after administration of Luc formulations; format: in vivo, mice; details: Table 3D
[10] = 0.2 mg/kg, intravenous, 0.2 mpk

SMILES: CCCCC/C=C\C/C=C\CCCCCCCCN(CCO)CCCCCCCC(=O)OC(CCCCCCCC)CCCCCCCC [Compound 6, Heptadecan-9-yl 8-((2-hydroxyethyl)((9Z,12Z)-octadeca-9,12-dien-1-yl)amino)octanoate]
hEPO concentrations versus MC3 formulations at each time point [1]: higher hEPO concentrations than MC3 formulations

SMILES: CCCCCCCCCOC(=O)CCCCCCCN(CCO)CCCCCCCC(=O)OC(CCCCCCCC)CCCCCCCC [Compound 18, Heptadecan-9-yl 8-((2-hydroxyethyl)(8-(nonyloxy)-8-oxooctyl)amino)octanoate]
PDI [2]: 0.042
EE (%) [3]: 97.50%
hEPO concentrations versus MC3 formulations at each time point [1]: higher hEPO concentrations than MC3 formulations
concentration at 0.25 h [4, 10]: 5370 ng/g
concentration at 0.5 h [4, 10]: 6020 ng/g
concentration at 1 h [4, 10]: 6050 ng/g
concentration at 2 h [4, 10]: 2040 ng/g
concentration at 4 h [4, 10]: 839 ng/g
concentration at 8 h [4, 10]: 296 ng/g
concentration at 24 h [4, 10]: 5 ng/g
concentration at 48 h ([4]; 0.2 mg/kg, intravenous, 0.2 mpk, 48 h, read-out: Lipid level in liver): 5370 ng/g
% Lipid Remaining in liver, 48 h 2 mpk ([4]; 2 mpk, 48 h): 0.018%
concentration at 0.25 h [5, 10]: 1230 ng/g
concentration at 0.5 h [5, 10]: 2020 ng/g
concentration at 1 h [5, 10]: 3210 ng/g
concentration at 2 h [5, 10]: 3070 ng/g
concentration at 4 h [5, 10]: 3770 ng/g
concentration at 8 h [5, 10]: 1340 ng/g
concentration at 24 h [5, 10]: 271 ng/g
concentration at 48 h ([5]; 0.2 mg/kg, intravenous, 0.2 mpk, read-out: Lipid level in spleen): 92 ng/g

SMILES: CCCCCCCCCOC(=O)CCCCCCCN(CCCCO)CCCCCCCC(=O)OC(CCCCCCCC)CCCCCCCC [Compound 20, Heptadecan-9-yl 8-((4-hydroxybutyl)(8-(nonyloxy)-8-oxooctyl)amino) octanoate]
expression at both dose levels ([6]; 0.001 and 0.01 mpk): highest expression
Total flux (p/s) 0.01 mpk Dose ([6]; 6 hours, Luc mRNA and H10 mRNA, 0.01 mpk (Table 5A)): 9.72E+07 p/s

IL-6 [7]: 94.00
SMILES: CCCCCCCCCOC(=O)CCCCCCCN(CCO)CCCCCCCCCC(=O)OC(CCCCCCCC)CCCCCCCC [Compound 23, Heptadecan-9-yl 10-((2-hydroxyethyl)(8-(nonyloxy)-8-oxooctyl)amino) decanoate]

Concentration Alanine aminotransferase [8]: 339
Concentration Aspartate aminotransferase [8]: 325
Concentration Lymphocytes [8]: 19976
Concentration Monocytes [8]: 1429
Concentration Neutrophils [8]: 4962.5
% Lipid Remaining in liver, 48 h 2 mpk ([4]; 2 mpk, 48 h): 87%
lipid remained in the liver after 48 hours ([4]; 48 hours after administration (text to Tables 17 and 18)): greater than 60%
concentration at 48 h ([4]; intravenous, 0.2 mg/kg, 0.2 mpk, 48 h, average of 3 rats, read-out: Liver level): 25000 ng/g
concentration at 48 h ([4]; intravenous, 2 mg/kg, 2 mpk, 48 h, average of 3 rats, read-out: Liver level): 285000 ng/g
concentration at 0.25 h ([4]; iv, 0.2 mg/kg, 0.2 mpk): 13200 ng/g
concentration at 0.5 h ([4]; iv, 0.2 mg/kg, 0.2 mpk): 20500 ng/g
concentration at 1 h ([4]; iv, 0.2 mg/kg, 0.2 mpk): 16800 ng/g
concentration at 2 h ([4]; iv, 0.2 mg/kg, 0.2 mpk): 26000 ng/g
concentration at 4 h ([4]; iv, 0.2 mg/kg, 0.2 mpk): 24700 ng/g
concentration at 8 h ([4]; iv, 0.2 mg/kg, 0.2 mpk): 32600 ng/g
concentration at 24 h ([4]; iv, 0.2 mg/kg, 0.2 mpk): 33000 ng/g
concentration at 48 h ([4]; iv, 0.2 mg/kg, intravenous, 0.2 mpk, 48 h, read-out: Lipid level in liver): 13200 ng/g
concentration at 48 h ([4]; iv, 0.2 mg/kg, intravenous, 0.2 mpk, 48 hours, read-out: Liver level): 11300 ng/g
concentration at 48 h ([4]; iv, 2 mg/kg, intravenous, 2 mpk, 48 hours, read-out: Liver level): 141000 ng/g
concentration at 48 h ([5]; intravenous, 0.2 mg/kg, 0.2 mpk, average of 3 rats, read-out: Spleen level): 9440 ng/g
concentration at 48 h ([5]; intravenous, 2 mg/kg, 2 mpk, average of 3 rats, read-out: Spleen level): 129000 ng/g
concentration at 0.25 h ([5]; iv, 0.2 mg/kg, 0.2 mpk): 4100 ng/g
concentration at 0.5 h ([5]; iv, 0.2 mg/kg, 0.2 mpk): 6240 ng/g
concentration at 1 h ([5]; iv, 0.2 mg/kg, 0.2 mpk): 4200 ng/g
concentration at 2 h ([5]; iv, 0.2 mg/kg, 0.2 mpk): 8610 ng/g
concentration at 4 h ([5]; iv, 0.2 mg/kg, 0.2 mpk): 11900 ng/g
concentration at 8 h ([5]; iv, 0.2 mg/kg, 0.2 mpk): 21200 ng/g
concentration at 24 h ([5]; iv, 0.2 mg/kg, 0.2 mpk): 19100 ng/g
concentration at 48 h ([5]; iv, 0.2 mg/kg, 0.2 mpk, read-out: Lipid level in spleen): 11600 ng/g
% Dose Remaining in Liver 6h ([9]; first column of this head): 80%
% Dose Remaining in Liver 6h ([9]; second column of this head): 54%
SMILES: CCCCCC=CCC=CCCCCCCCCC(CCCCCCCCC=CCC=CCCCCC)OC(=O)CCCN(C)C (stereo not shown) [MC3, heptatriaconta-6,9,28,31-tetraen-19-yl 4-(dimethylamino)butanoate, reference compound]
